From article PMC11283679 (Gastroenterology, 2023)
Ends that are not written are not given here. C(BODIPY) = not defined here

System: NHE3
Format: cell-based, human
Settings: for activity: read-out: Stimulation of NHE3 activity (%)

Row | Substance | EC50 | activity | Stimulation of NHE3 activity (%)
1 | N3SP-1Δ5: N3SP-1 with truncation of 5 N-terminal aa (TPRPSTVEASVSYLLRESASAVCLDMQSLEQRR-{C(BODIPY)}; reading uncertain; UniProt P26432 573-605, looked up, fragment) | 154 nM | 39% | 
2 | N3SP-1Δ6: N3SP-1 with truncation of 6 N-terminal aa (PRPSTVEASVSYLLRESASAVCLDMQSLEQRR-{C(BODIPY)}; reading uncertain; UniProt P26432 574-605, looked up, fragment) | 151 nM | 40% | 
3 | N3SP-1Δ8: N3SP-1 with truncation of 8 N-terminal aa (PSTVEASVSYLLRESASAVCLDMQSLEQRR-{C(BODIPY)}; reading uncertain; UniProt P26432 576-605, looked up, fragment) |  | 9% | 
4 | N3SP-1Δ9: N3SP-1 with truncation of 9 N-terminal aa (STVEASVSYLLRESASAVCLDMQSLEQRR-{C(BODIPY)}; reading uncertain; UniProt P26432 577-605, looked up, fragment) |  |  | No
5 | N3SP-1Δ18: N3SP-1 with truncation of 18 N-terminal aa (LLRESASAVCLDMQSLEQRR-{C(BODIPY)}; reading uncertain; UniProt P26432 586-605, looked up, fragment) |  |  | No
